Values quoted from earlier work in US9371351B2, “Glycomimetics as Pseudomonas aeruginosa lectin inhibitors” (priority 2012, dated 2016).

Target: LecB (Pseudomonas aeruginosa, UniProt Q9HYN5)
Conditions: known value, background; cited from earlier work

Sequence of LecB (Q9HYN5 entry or part of it): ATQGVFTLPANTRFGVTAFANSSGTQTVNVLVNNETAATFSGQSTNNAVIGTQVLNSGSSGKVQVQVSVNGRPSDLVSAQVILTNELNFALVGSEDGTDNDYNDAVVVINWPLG

Compound: CC(=O)N[C@H]1C(O)O[C@H](CO)[C@@H](O[C@@H]2O[C@@H](C)[C@@H](O)[C@@H](O)[C@@H]2O)[C@@H]1O[C@@H]1O[C@H](CO)[C@H](O)[C@H](O)[C@H]1O (stereo partly drawn) [Lewis^a trisaccharide, α-Fuc1-4(βGal1-3)-GlcNAc]
- Kd: 210 nM
